The text below walks through data of US5753631A, “Intercellular adhesion mediators” (Cytel Corporation, priority 1995, dated 1998).

Test [1] has as its target T1, P-Selectin (Homo sapiens, UniProt P16109).
T1 construct: endogenous in cells
T1 sequence (P16109 42-830): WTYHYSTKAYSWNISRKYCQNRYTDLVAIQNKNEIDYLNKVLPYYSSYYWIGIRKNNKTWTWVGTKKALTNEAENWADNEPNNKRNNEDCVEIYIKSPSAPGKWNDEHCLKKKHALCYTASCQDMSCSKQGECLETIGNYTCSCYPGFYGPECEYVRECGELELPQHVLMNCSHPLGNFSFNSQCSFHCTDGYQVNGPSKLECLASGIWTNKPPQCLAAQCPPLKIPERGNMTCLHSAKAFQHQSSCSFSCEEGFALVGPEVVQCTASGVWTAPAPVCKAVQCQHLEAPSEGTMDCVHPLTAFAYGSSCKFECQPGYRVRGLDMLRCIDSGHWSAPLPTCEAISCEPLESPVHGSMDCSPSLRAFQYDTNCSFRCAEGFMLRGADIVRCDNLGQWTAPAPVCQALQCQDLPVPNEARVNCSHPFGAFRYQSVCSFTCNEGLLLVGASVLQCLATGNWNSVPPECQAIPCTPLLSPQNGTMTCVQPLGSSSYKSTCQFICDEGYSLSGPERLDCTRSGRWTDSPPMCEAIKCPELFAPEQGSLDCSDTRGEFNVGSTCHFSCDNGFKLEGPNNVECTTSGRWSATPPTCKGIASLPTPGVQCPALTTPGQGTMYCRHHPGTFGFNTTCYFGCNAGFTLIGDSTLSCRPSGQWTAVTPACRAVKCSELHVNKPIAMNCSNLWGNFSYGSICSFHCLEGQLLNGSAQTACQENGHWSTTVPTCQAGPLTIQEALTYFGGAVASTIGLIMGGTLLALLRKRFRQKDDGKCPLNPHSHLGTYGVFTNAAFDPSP
The test can be described thus: Inhibition of neutrophil adhesion to thrombin activated platelets by glycolipids in liposomes. The format is cell-based. Particulars: for IC50: read-out: AMOUNT REQUIRED FOR 50% INHIBITION
Here is the method:
3. For the assay, 20 μl of the platelet suspension (2×10^8 /ml) was placed in a microcentrifuge tube. […] Twenty μl of the neutrophil preparation (2×10^6 /ml) was then added and the tubes were allowed to stand for a further 20 min at room temperature.
(§1) 4. Adhesion of activated platelets to the neutrophils was assessed microscopically. One hundred neutrophils were evaluated. They were scored as positive if 2 or more platelets were attached and negative if less than 2 platelets were bound. The percent of cells with 2 or more bound platelets was calculated.
This example describes experiments testing various glycolipid structures on liposomes. In particular, SY2, a sialylated polysaccharide in which the fucose, instead of being attached to the ultimate GlcNAc as in SLe^x, is attached to the penultimate GlcNAc, was tested. Platelets and neutrophils were isolated by the methods described above. Platelets were activated with thrombin and then incubated with dilutions of various glycolipids embedded in liposomes prepared as described above. Neutrophils were added and the effect of the glycolipids on the adhesion of neutrophils to activated platelets was determined.
Structures of the various glycolipids examined are as follows: SDiY2, NeuGcα2,3Galβ1,4(Fucα1,3)GlcNacβ1,3Galβ1,4 (Fucα1,3)GlcNAcβ1,3Galβ1,4Glcβ1,1Cer; SLe^x, NeuGcα2,3Galβ1,4 (Fucα1,3)GlcNAcβ1,3Galβ1,4Glcβ1,1Cer; SY2, NeuGcα2,3Galβ1,4 GlcNAcβ1,3Galβ1,4(Fucα1,3)GlcNAcβ1,3Galβ1,4Glcβ1,1Cer; SH, NeuGcα2,3Galβ1,4GlcNAcβ1,3Galβ1,4GlcNAcβ1,3Galβ1,4Glcβ1,1Cer; SPG, NeuGcα2,3Galβ1,4GlcNAcβ1,3Galβ1,4Glcβ1,1Cer.
All materials were prepared as described above. Platelets and neutrophils were isolated by the methods described. Platelets were activated with thrombin and then incubated with dilutions of various glycolipids contained in liposomes. Neutrophils were added and the effect of the glycolipids on the adhesion of neutrophils to activated platelets was determined.
The results of an experiment in which synthetic SLe^x (NeuAc) and a preparation of SLe^x prepared by enzymatic fucosylation of sialylparagloboside purified from bovine erythrocytes, SLe^x (NeuGc), were directly compared are shown in Table 4.

Test [2] deals with T1, P-Selectin. The test is described as follows: Oligosaccharide/polysaccharide inhibition of neutrophil adhesion to thrombin activated platelets. The format is cell-based. As for the experimental part:
Briefly, platelets and neutrophils were isolated by the methods described above. Platelets were activated with thrombin and then incubated with dilutions of various oligosaccharides. Neutrophils were added, and the effect of the saccharides on the adhesion of neutrophils to activated platelets was determined.
1. Platelets were isolated as described above and were activated (2×10^8 /ml) by incubation for 20 min at room temperature with thrombin at a final concentration of 0.25 U/ml.
2. Neutrophils were isolated by layering heparinized blood over Mono-Poly Resolving Medium (Ficoll-Hypaque-Flow Laboratories), followed by centrifugation for 25 min at 2000 rpm and then, a further 25 min at 2500 rpm as described above.
3. For the assay, 20 μl of the platelet suspension (2×10^8 /ml) was placed in a microcentrifuge tube. An equal volume of the oligosaccharide preparations at concentrations from 200 μg/ml to 0.3 μg/ml, or of glycolipid-liposome preparations (prepared as described above), at concentrations from 2 μg/ml to 0.25 μg/ml, was added and the tubes were allowed to stand at room temperature for 20 min. Twenty μl of the neutrophil preparation (2×10^6 /ml) was then added and the tubes were allowed to stand for a further 20 min at room temperature.
as §1
Briefly, platelets and neutrophils were isolated by the methods described above. Platelets were activated with thrombin and then incubated with dilutions of various oligosaccharides. Neutrophils were added and the effect of the saccharides on the adhesion of neutrophils to activated platelets was determined.
Platelets were isolated as described above and were activated (2×10^8 /ml) by incubation for 20 min at room temperature with thrombin at a final concentration of 0.25 U/ml.
Neutrophils were isolated by layering heparinized blood over Mono-Poly Resolving Medium (Ficoll-Hypaque, Flow Laboratories), followed by centrifugation for 25 min at […] and then, a further 25 min at 2500 rpm as described above.
For the assay, 20 μl of the platelet suspension (2×10^8 /ml) was placed in an Eppendorf centrifuge tube. An equal volume of the oligosaccharide preparations at concentrations from 500 μg/ml to 2.0 μg/ml was added and the tubes were allowed to stand at room temperature for 20 min. Twenty […] of the neutrophil preparation (2×10^6 /ml) was then added and the tubes were allowed to stand for a further 20 min at room temperature.
Adhesion of activated platelets to the neutrophils was assessed microscopically. One hundred neutrophils were evaluated. They were scored as positive if 2 or more platelets were attached and negative if less than 2 platelets were bound. The percent of cells with 2 or more bound platelets was calculated.

The mark [3] stands for this setting: Table 3, experiment not specified.

On to `CC(=O)N[C@H]1[C@H]([C@H](O)[C@H](O)CO)O[C@@](O[C@H]2[C@@H](O)[C@@H](CO)O[C@@H](O[C@H]3[C@H](O[C@@H]4O[C@@H](C)[C@@H](O)[C@@H](O)[C@@H]4O)[C@@H](NC(C)=O)C(O)O[C@@H]3CO)[C@@H]2O)(C(=O)O)C[C@@H]1O` (some centres unmarked) [SLe^x (NeUAc)], for which the IC50 on P-Selectin [1] (Table 4) worked out at 0.67 µM.

In the case of `CC(=O)N[C@H]1[C@H]([C@H](O)[C@H](O)CO)O[C@@](O[C@H]2[C@@H](O)[C@@H](CO)O[C@@H](O[C@H]3[C@H](O[C@@H]4O[C@@H](C)[C@@H](O)[C@@H](O)[C@@H]4O)[C@@H](NC(C)=O)C(O)O[C@@H]3CO)[C@@H]2O)(C(=O)O)C[C@@H]1O` (some centres unmarked) [SLe^x (tetra), NeuAcα2,3Galβ1,4 (Fucα1,3)GlcNAc], the IC50 at P-Selectin [2] (Table 2, mean of three identical experiments, read-out: AMOUNT REQUIRED FOR 50% INHIBITION (converted)) was 54 µM. Also, on P-Selectin [2] (tetrasaccharide versus hexasaccharide), the “times more required for 50% inhibition than of the SLe^x-hexasaccharide” value is reported as “approximately 20 times”.

For the compound `CC(=O)N[C@H]1[C@H](O[C@H]2[C@@H](O)[C@@H](CO)O[C@@H](O[C@H]3[C@H](O)[C@@H](O)C(OCC[Si](C)(C)C)O[C@@H]3CO)[C@@H]2O)O[C@H](CO)[C@@H](O[C@@H]2O[C@H](CO)[C@H](O)[C@H](O[C@]3(C(=O)O)C[C@H](O)[C@@H](NC(C)=O)[C@H]([C@H](O)[C@H](O)CO)O3)[C@H]2O)[C@@H]1O[C@@H]1O[C@@H](C)[C@@H](O)[C@@H](O)[C@@H]1O` (some centres unmarked) [SLe^x Hexasaccharide], the IC50 on P-Selectin [2] (read-out: AMOUNT REQUIRED FOR 50% INHIBITION, Table 6) is 6.42 µM; at P-Selectin [2] (read-out: amount for 50% inhibition of P-Selectin mediated binding of neutrophils to thrombin activated platelets, Table 6) it was 6.42 µM.

On to “NeuGcα2,3Galβ1,4 GlcNAcβ1,3Galβ1,4(Fucα1,3)GlcNAcβ1,3Galβ1,4Glcβ1,1Cer [SY2]”, for which the IC50 at P-Selectin [1] (Table 3, Exp 1) was 0.325 µM; at P-Selectin [1] (Table 3, Exp 2) it was 0.345 µM. In addition, the “inhibition of P-Selectin mediated adhesion of neutrophils to thrombin activated platelets” value against P-Selectin [1] (in words, relative) is “equally as well as did SLe^x and SDiY2”.

“NeuGcα2,3Galβ1,4(Fucα1,3)GlcNacβ1,3Galβ1,4 (Fucα1,3)GlcNAcβ1,3Galβ1,4Glcβ1,1Cer [SdiY2]”: the IC50 on P-Selectin [1] (setting [3]) was found to be 0.36 µM.

“NeuGcα2,3Galβ1,4GlcNAcβ1,3Galβ1,4GlcNAcβ1,3Galβ1,4Glcβ1,1Cer [SH, reference compound]”: at P-Selectin [1] (setting [3]), the “AMOUNT REQUIRED FOR 50% INHIBITION” value was “No Inh”.

In the case of “NeuGcα2,3Galβ1,4GlcNAcβ1,3Galβ1,4Glcβ1,1Cer [SPG, reference compound]”, the “AMOUNT REQUIRED FOR 50% INHIBITION” value at P-Selectin [1] (setting [3]) is “No Inh”.
